Molecules are shown by their SMILES. Several values for one entry are separate records, joined by “and”; a condition that tells them apart may be missing. Equal values may be shown once. Activity calls are given as the source filed them. No rule for the calls is given here. Starred links: 1 amine or outer side, 2 acyl side, 3 side chain; linkers in the order of their positions; H or OH if unused. Positions of bridges follow the written chain, without caps; N, C: chain ends. Non-standard residues stand in square brackets, D forms with d. Residues, ends and D or L forms follow the SMILES beside them. Chains are numbered I, II in the order given. Actinocin(9to1) = Cc1c2oc3c(C)ccc(C(=O)[*:1])c3nc-2c(C(=O)[*:2])c(N)c1=O; NMeV = CN[CH](C(=O)O)C(C)C; Sar = CNCC(=O)O

The test relates to B cell line, CD40 signaling inhibition reporter. Nature of the test: CD40 pathway inhibition in B cells – B cell lineage, dose response (AID 1259332).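 Also: cells stimulated with CD40 ligand tCD40L.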
Usually AC50 stands for the midpoint of the concentration-response curve, whichever way the signal moves. Turning to `CC1(C)C(=O)C=C[C@@]2(C)C1C(=O)C(=O)[C@]1(C)C2CC[C@@]2(C)[C@H](c3ccoc3)C[C@H]3O[C@]321` (stereo partly specified), the half-maximal activity concentration (AC50) is 3.47 µM. As to `O=C(Nc1nnc(C2CC2)s1)C1CC(=O)N(c2ccc3c(c2)OCCO3)C1` (stereo unspecified), the AC50 was > 20 µM (inactive). The same measure for `COc1ccc(C(=O)CCN2CCc3cc(OC)c(OC)cc3C2)cc1`: 5.82 µM; for `CC(C)(C)CC(C)(C)c1ccc(OCCOCC[N+](C)(C)Cc2ccccc2)cc1`: 1.62 µM. The same measure for `CC1=C(C#N)c2nc(N)c(C#N)c(C)c2/C1=C\c1ccccc1`: 4.41 µM; for `CCOC(=O)c1cc2c(ccn2C)n1Cc1ccc(C#N)cc1`: > 20 µM (inactive); for `CCc1cnc(N2[C@H](C#N)[C@H](c3ccc(C#Cc4ccccc4F)cc3)[C@H]2CO)s1`: 9.09 µM. The result for `Cc1ccc(O)c(N=Nc2ccccc2)n1` reads 8.46 µM; that for `N#Cc1cccc(-c2ccc(C3[C@@H]4CN(C(=O)Nc5ccc(C(F)(F)F)cc5)C[C@H]3N4)cc2)c1` (stereo partly specified), 8.9 µM. As for `NC(c1ccccc1)c1csc(NC(=O)Nc2cccc(C(F)(F)F)c2)n1` (stereo unspecified), the AC50 was 6.03 µM.

Regarding `CCCC(=O)NC1=C(Cl)C(=O)c2ccccc2C1=O`, the concentration at half-maximal activity (AC50) is 0.935 µM. The result for `c1cc(-c2cnn3cc(-c4ccc(OCCN5CCCCC5)cc4)cnc23)ccn1` reads 2.7 µM; that for `Nc1nc(=O)c2ccccc2s1`, 8.69 µM. The result for `C=C1C(=O)O[C@H]2[C@H]1CC/C(C)=C/CC[C@@]1(C)O[C@@H]21` reads 4.54 µM; that for `CC(C)(C)c1cc(C=C(C#N)C#N)cc(C(C)(C)C)c1O`, 0.524 µM; that for `Cc1ccc(OC(=O)N(C)C[C@@H]2OCc3ccccc3-c3c(n(C)c4ccccc34)C(=O)N([C@@H](C)CO)C[C@H]2C)cc1`, 7.62 µM. Take `CCCNC(=O)N1[C@H](C#N)[C@H](c2ccc(C3=CCCCC3)cc2)[C@@H]1CO`: the AC50 is > 20 µM (inactive). The result for `N#C[C@H]1[C@H](c2ccc(C#Cc3ccccc3F)cc2)[C@@H](CO)N1C(=O)C1CC1` reads > 20 µM (inactive); that for `CC(C)(C)NCC(=Cc1ccccc1)C(=O)c1ccccc1`, 7.22 µM. The result for `C[C@@H]1CN([C@@H](C)CO)C(=O)c2c(c3ccccc3n2C)-c2ccccc2CO[C@H]1CN(C)C(=O)Nc1cccc(C(F)(F)F)c1` reads 9.25 µM; that for `c1ccc2sc(-c3ccc4c(c3)OCO4)nc2c1`, 8.5 µM; that for `CCN(CC)C(=O)c1ccc(NC(=O)Nc2ccccc2F)cc1`, 2.35 µM. The same measure for `O=C1CC(c2ccc3c(c2)OCO3)Sc2nc3ccccc3n21` (stereo unspecified): 8.89 µM; for `COc1ccc(S(=O)(=O)Nc2ccc3c(c2)C(=O)N([C@@H](C)CO)C[C@@H](C)[C@@H](CN(C)Cc2ccc(C(F)(F)F)cc2)OCCCC[C@H](C)O3)cc1`: > 7 µM (inactive); for `O=C(Nc1ccc2c(c1)OCCO2)C1CCCC1`: 5.46 µM. On to `COc1ccc(/C=C/C(=O)Nc2ccccc2C(=O)O)cc1OC`, for which the AC50 is 6.12 µM. For `Cn1cnc(S(=O)(=O)N2C[C@@H]3N[C@H](C2)C3c2ccc(-c3ccccc3F)cc2)c1` (stereo partly specified), the AC50 was 11 µM.

Take `CCOc1ccc(OCc2cccc(C(=O)N3CCOCC3)c2)cc1`: the AC50 is 2.92 µM.

Take `Clc1ccc(COC(Cn2ccnc2)c2ccc(Cl)cc2Cl)c(Cl)c1` (stereo unspecified): the AC50 was 5.18 µM.

For `CC[C@@]1(O)C(=O)OCc2c1cc1n(c2=O)Cc2cc3cc(O)ccc3nc2-1`, the concentration at half-maximal activity (AC50) is 1.33 µM. As for `COC1=CC(=O)c2c(ccc3ncnc(N)c23)C1=O`, the AC50 is 1.66 µM. The same measure for `CC1CC(C)C(=NNC(N)=O)C(C(O)CC2CCC(=O)NC2=O)C1` (stereo unspecified): 0.241 µM; for `NCCOc1ccc(C23CC4CC(CC(C4)C2)C3)cc1`: 5.74 µM; for `COC(=O)C1=C(C(=O)OC)C2OC1c1cc3ccccc3cc12`: 0.738 µM.

Consider `O=C1NC2C(=CC(O)C(O)C2O)c2cc3c(c(O)c21)OCO3` (stereo unspecified), for which the AC50 was 0.0711 µM. The result for `COc1ccc(C[C@H]2NC[C@H](O)[C@H]2OC(C)=O)cc1` reads 0.0235 µM; that for `O=C(c1ccc(Nc2nccc(-c3cc4ccccc4s3)n2)cc1)N1CCC(N2CCCC2)CC1`, 1.07 µM and 0.541 µM; that for `C[C@@H]1CN([C@H](C)CO)C(=O)c2c(c3ccccc3n2C)-c2ccccc2CO[C@H]1CN(C)C(=O)Nc1cccc(Cl)c1Cl`, 7.74 µM.

`C=C1C(=O)C23C(O)C1CCC2C12CCCC(C)(COC(C)=O)C1C(O)C3(O)OC2` (stereo unspecified): the concentration at half-maximal activity (AC50) was 0.567 µM. The same measure for `CC1=CC2OC3CC4OC(=O)C=CC=CC(=O)OCCC(C)C(O)C(=O)OCC2(CC1O)C4(C)C31CO1` (stereo unspecified): 0.0067 µM; for `N#C[C@H]1N[C@H](CO)[C@H]1c1ccc(C#CC2CCCC2)cc1`: 6.27 µM. The same measure for `CC(=O)O[C@H]1C[C@H](O[C@H]2[C@@H](O)C[C@H](O[C@H]3[C@@H](O)C[C@H](O[C@H]4CC[C@@]5(C)C(CCC6C5C[C@@H](O)[C@]5(C)[C@@H](C7=CC(=O)OC7)CC[C@]65O)C4)O[C@@H]3C)O[C@@H]2C)O[C@H](C)[C@H]1O[C@@H]1O[C@H](CO)[C@@H](O)[C@H](O)[C@H]1O` (stereo partly specified): 0.909 µM; for `O=c1cc(-c2ccc(O)cc2)oc2ccc3ccccc3c12`: 2.2 µM; for `COc1ccc2c(c1)c1ncn(Cc3ccccn3)c(=O)c1n2C`: > 20 µM (inactive). The result for `CC1CCCC=CC2CC(OC(=O)CN(C)C)CC2C(O)C=CC(=O)O1` (stereo unspecified) reads 1.77 µM; that for `N#Cc1cccc(-c2ccc([C@@H]3[C@@H]4CN(S(=O)(=O)c5ccc(-c6ccccc6)cc5)C[C@H]3N4)cc2)c1`, > 20 µM (inactive); that for `O=S(c1ccccc1O)S(=O)c1ccccc1O` (stereo unspecified), 4.55 µM. On to `Cc1c2oc3c(C)ccc(C(=O)OC(C)C4NC(=O)C(C(C)C)N(C)C(=O)CN(C)C(=O)C5CCCN5C(=O)C(C(C)C)NC4=O)c3nc-2c(C(=O)OC(C)C2NC(=O)C(C(C)C)N(C)C(=O)CN(C)C(=O)C3CCCN3C(=O)C(C(C)C)NC2=O)c(N)c1=O` (stereo unspecified) (I: cyclo([Sar][NMeV]TVP) / II: cyclo([Sar][NMeV]TVP); linker I:3-II:3 via Actinocin(9to1); configuration not given here), for which the AC50 was 0.0309 µM. The result for `CC(=NNc1ccc2ccccc2n1)c1ccccc1O` reads 2.94 µM; that for `O=C1C=CC2C3C(=O)N(c4ccccc4)C(=O)C3C1N2Cc1ccccc1` (stereo unspecified), 1.8 µM; that for `CC1CCOC(=O)C=CC=CC(=O)OC2CC3OC4C5OC5(C)C(O)CC4(COC(=O)C1O)C2(C)C31CO1` (stereo unspecified), 0.0446 µM. The same measure for `O=C(Cn1ncc(Cl)c(Cl)c1=O)NC1CCCCC1`: 4.96 µM. As for `Cc1cc(C)cc(N2C(=O)CC(Sc3nnnn3-c3ccccc3)C2=O)c1` (stereo unspecified), the AC50 was 0.675 µM. The same measure for `COc1cccc(C#Cc2ccc([C@H]3[C@@H](C#N)N(C(=O)c4ccccn4)[C@@H]3CO)cc2)c1`: 5.81 µM.

Regarding `O=C(C[C@@H]1C[C@H]2c3cc(NC(=O)Nc4ccc(C(F)(F)F)cc4)ccc3O[C@H]2[C@H](CO)O1)NCc1cc(F)ccc1F`, the AC50 was > 20 µM (inactive). The same measure for `O=C1NC2c3c(I)sc(I)c3C(=O)C2O1` (stereo unspecified): 3.2 µM; for `CC(C)Cc1ccc(C(C)CC2=CCC(CN(C)C)C2=O)cc1` (stereo unspecified): 3.99 µM; for `COC(=O)C[C@](O)(CCCC(C)(C)O)C(=O)O[C@@H]1C(OC)=C[C@]23CCCN2CCc2cc4c(cc2[C@H]13)OCO4`: < 0.0046 µM. The result for `COCC(C)n1c(C)cc(C(=O)COC(=O)c2cccn2C)c1C` (stereo unspecified) reads 3.06 µM. The result for `CN(C)c1ccc(NC(=O)c2cnsn2)cc1` reads 6.15 µM; that for `Cc1csc(NC(=O)c2ccc(N3CCCC3=O)cc2)n1`, 4.3 µM. In the case of `COc1ccc(S(=O)(=O)Nc2ccc3c(c2)C(=O)N([C@@H](C)CO)C[C@H](C)[C@@H](CN(C)Cc2ccc(C(F)(F)F)cc2)OCCCC[C@@H](C)O3)cc1`, the AC50 is 7.3 µM. The same measure for `O=C(C1CCOCC1)N1CC(=O)N2[C@H](C1)[C@@H](c1ccc(C#CCc3ccccc3)cc1)[C@@H]2CO`: 5.95 µM; for `O=C(Nc1ccc(C(F)(F)F)cc1)N1C[C@@H]2N[C@H](C1)C2c1ccc(-c2ccccc2)cc1` (stereo partly specified): 7.26 µM; for `C[C@H]1CN([C@@H](C)CO)C(=O)c2ccccc2-c2ccccc2CO[C@H]1CN(C)C(=O)[C@@H](Cc1ccccc1)N(C)C`: > 20 µM (inactive). The result for `COc1cc(C(C)C)c2c(c1)S(=O)(=O)N(COc1cc(=O)n3cccc(OCCN4CCCCC4)c3n1)C2=O` reads 2.64 µM; that for `CC(C)(C)CC(C)(C)c1ccc(O)c(Cc2ccc(Cl)cc2Cl)c1`, 7.11 µM; that for `COc1cccc(NC(=O)N2CC(=O)N3[C@H](CO)[C@@H](c4ccc(C#CCC5CCCC5)cc4)[C@H]3C2)c1`, > 7 µM (inactive). The same measure for `CC1CC(C)(O)CC(C(O)CC2CC(=O)NC(=O)C2)C1=O` (stereo unspecified): 0.0973 µM; for `COc1ccccc1NC(c1cccnc1)c1ccc2cccnc2c1O` (stereo unspecified): 8.25 µM; for `COC(=O)C1=C(C)NC(C)=C(C(=O)OCCCN2CCC(c3ccccc3)(c3ccccc3)CC2)[C@H]1c1cccc([N+](=O)[O-])c1`: 11.4 µM.

Take `Cc1ccc(S(=O)(=O)N2CCCC2CNC(=O)c2ccc3c(c2)OCO3)cc1` (stereo unspecified): the AC50 was 3.91 µM. The result for `CNc1c2cccc(C)c2nc2c(C(=O)NCCN(C)C)cccc12` reads 0.266 µM. As for `Cc1cc(C(=O)COC(=O)CNC(=O)c2ccccc2)c(C)n1CC1CCCO1` (stereo unspecified), the half-maximal activity concentration (AC50) was 2.32 µM. The same measure for `C[C@H](CO)N1C[C@H](C)[C@@H](CN(C)Cc2cccc(C(F)(F)F)c2)OCc2ccccc2-c2c(n(C)c3ccccc23)C1=O`: > 20 µM (inactive); for `N#C[C@H]1[C@H](c2ccc(C#Cc3ccccc3F)cc2)[C@@H](CO)N1C(=O)c1cccnc1`: 2.93 µM. The result for `N#C[C@@H]1[C@@H](c2ccc(C#CC3CCCCC3)cc2)[C@H](CO)N1C(=O)Nc1ccc(F)cc1` reads 6.51 µM; that for `O=C1NC2c3c(Cl)sc(Cl)c3C(=O)C2O1` (stereo unspecified), 7.36 µM. With `C[n+]1c2n(c3ccccc31)N=C(c1ccc(-c3ccccc3)cc1)CS2`, the AC50 is 1.21 µM. The result for `CCS(=O)(=O)N1[C@H](CO)[C@@H](c2ccc(C#Cc3ccccc3F)cc2)[C@@H]1C#N` reads 4.12 µM; that for `CC(=O)OC(C)(C)/C=C/C(=O)C(C)(O)C1C(O)CC2(C)C3CC=C4C(CC(O)C(=O)C4(C)C)C3(C)C(=O)CC12C` (stereo unspecified), 0.124 µM.

The values above are taken from PubChem BioAssay AID1259332 (Broad Institute, 2017).
